Results as given in the NIST ThermoML archive (doi:10.1016/j.jct.2014.05.019).

Test: refractive index (Na D-line) (dimensionless); xn = mol fraction of the nth substance listed
Conditions: 100 kPa, Liquid, Standard Abbe refractometry

NC(CO)C(=O)[O-].[Na+] (stereo not drawn) [sodium DL-serine] + O
refractive index
Conditions | 303.15 K | 308.15 K | 313.15 K | 318.15 K | 323.15 K | 328.15 K | 333.15 K | 338.15 K | 343.15 K
x1 = 0.009 | 1.34216 | 1.34144 | 1.34066 | 1.33982 | 1.33894 | 1.33802 | 1.33706 | 1.33608 | 1.33505
x1 = 0.018 | 1.35202 | 1.35122 | 1.35038 | 1.3495 | 1.34861 | 1.34767 | 1.34667 | 1.34565 | 1.34458
x1 = 0.028 | 1.36168 | 1.36085 | 1.36 | 1.35908 | 1.35806 | 1.35706 | 1.35612 | 1.35511 | 1.35407
x1 = 0.037 | 1.37103 | 1.37015 | 1.36925 | 1.3683 | 1.36729 | 1.36632 | 1.36532 | 1.36426 | 1.36322
x1 = 0.048 | 1.38012 | 1.37921 | 1.37827 | 1.37725 | 1.37623 | 1.37526 | 1.37424 | 1.37311 | 1.37204
x1 = 0.059 | 1.38919 | 1.38826 | 1.38724 | 1.3862 | 1.38512 | 1.38406 | 1.38298 | 1.38194 | 1.38083
